# Source: patent US10028911B2, “Sustained release formulation of methotrexate as a disease-modifying antirheumatic drug (DMARD) and an anti-cancer agent” (PACIRA PHARMACEUTICALS, INC., priority 2010, dated 2018)
# Where two headings read alike, the source gives them in different places.
# Columns and labels:
# [1] = Pharmacokinetic (PK) study in rats, subcutaneous injection, serum MTX by HPLC; type: in vivo, Male Sprague Dawley rats; conditions: rat
# Protocol: A pharmacokinetic (PK) study was performed in rats, comparing MTX solution control against four different formulations of MVL-encapsulated MTX at a dose level of 10 mg/kg. Male Sprague Dawley rats weighing 280-320 g received subcutaneous injections of either MTX solution or one of the MVL-encapsulated MTX formulations. The injections were made on the left lateral hind limb of each rat using 1 mL syringes fitted with 25G needles. Each treatment group contained 3 rats. Appropriate dilutions with sterile saline solution were performed to provide a dose of 10 mg/kg of MTX per rat, assuming an average rat weight of 300 g (final injection volume of 200 uL). Rats were ordered by pre-dose weight and then randomized into the different treatment groups.
# Serum MTX analysis was performed to measure MTX in serum using a liquid-liquid extraction (LLE) HPLC method performed by an Agilent 1200 Series system produced by Agilent Technologies headquartered in Santa Clara, Calif. A 100 μL volume of rat serum was mixed with 300 μL of acetonitrile solution containing 1.1% formic acid (w/v) in a 1.5-mL Eppendorf tube. The deproteinization was carried out by vortexing for 1 minute, followed by centrifugation at 13,000 g for 5 minutes. The entire supernatant was transferred into a 1.5-mL microcentrifuge tube with screw cap. Acetonitrile was cleaned out by mixing 500 μL of chloroform with the supernatant. The tube was vortexed for 1 minute and then centrifuged at 13,000 g for 3 minutes. A 40 μL volume of the top aqueous portion was collected into a 100-μL vial insert for HPLC sample injection.
# The HPLC system was equipped with a detector set at 302 nm and a 2.1-mm×250-mm Supelcosil LC-18-S with 5-μm particle size column. The mobile phase consisted of 102 mM sodium phosphate (dibasic), 32.5 mM citric acid, and 10% (v/v) acetonitrile (pH˜6.0). The flow rate was 0.6 mL/min, column temperature 35° C., and injection volume 20 μL. An MTX standard curve was prepared by spiking 6 different concentrations of MTX (22.7-727.1 ng/mL) into MTX-free rat serum. The MTX in each spiked standard was extracted using the same sample preparation method above.
# Additional PK studies on Formulations 1 and 2 were performed as above, including some at reduced doses of MTX. The PK parameters from these studies are summarized below. […] The Cavg is the average plasma concentration over the 7 day time period.
# [2] = cited from earlier work
smiles,measurement,setting,value
"CN(Cc1cnc2nc(N)nc(N)c2n1)c1ccc(C(=O)N[C@@H](CCC(=O)O)C(=O)O)cc1 [MTX Solution, methotrexate]",time to drop below LOQ in plasma,"[1]; 10 mg/kg, FIG. 1",≤ 24 h
same,AUC/Dose,[1]; MTX dose 10 mg/kg,1.55 µmol·h/L/mg/kg
same,Cmax,[1]; MTX dose 10 mg/kg,14.4 µM
same,tmax,[1]; MTX dose 10 mg/kg,0.5 h
same,standard AUC,[2]; oral immediate release dosage forms (Hoekstra et al. 2004),2466 mcg/L-hr
same,t1/2,[2]; orally administered,8 to 10 h
same,tmax,[2]; orally administered,1 to 3 h
